{"source": "patent US20250215029A1", "about": "(Recludix Pharma, Inc., priority 2022, published 2025)"}
{"target": "T1, pY641-STAT6 in PBMC (Homo sapiens, UniProt P42226)", "T1 construct": "Cryopreserved Peripheral Blood Mononuclear Cells (PBMC) are from AllCells; host or cells: cryopreserved PBMC", "T1 sequence (P42226 1-847)": "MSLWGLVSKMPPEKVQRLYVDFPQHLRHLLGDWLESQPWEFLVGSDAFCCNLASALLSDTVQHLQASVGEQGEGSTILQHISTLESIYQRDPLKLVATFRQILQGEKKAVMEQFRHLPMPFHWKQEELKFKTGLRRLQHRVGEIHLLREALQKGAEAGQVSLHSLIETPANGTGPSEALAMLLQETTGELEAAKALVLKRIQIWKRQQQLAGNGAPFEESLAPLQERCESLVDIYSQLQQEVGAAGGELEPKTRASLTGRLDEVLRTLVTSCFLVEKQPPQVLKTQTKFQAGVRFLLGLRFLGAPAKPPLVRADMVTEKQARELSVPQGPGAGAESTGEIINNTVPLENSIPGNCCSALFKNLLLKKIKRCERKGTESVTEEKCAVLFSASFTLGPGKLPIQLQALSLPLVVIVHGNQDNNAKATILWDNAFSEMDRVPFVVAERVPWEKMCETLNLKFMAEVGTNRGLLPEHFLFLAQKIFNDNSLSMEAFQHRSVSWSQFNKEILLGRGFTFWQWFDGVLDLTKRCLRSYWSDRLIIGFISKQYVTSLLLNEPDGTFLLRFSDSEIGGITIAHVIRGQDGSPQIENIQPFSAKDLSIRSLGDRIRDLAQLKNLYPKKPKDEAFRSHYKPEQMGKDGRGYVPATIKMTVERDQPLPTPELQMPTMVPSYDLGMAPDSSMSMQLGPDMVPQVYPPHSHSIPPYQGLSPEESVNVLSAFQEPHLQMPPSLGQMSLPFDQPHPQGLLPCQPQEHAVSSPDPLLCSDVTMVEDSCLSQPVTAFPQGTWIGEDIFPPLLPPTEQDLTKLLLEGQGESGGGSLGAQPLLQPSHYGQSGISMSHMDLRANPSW", "test": "MSD-pSTAT-PBMC Assay (pSTAT6, IL-4 stimulated)", "assay_type": "cell-based", "conditions": "PBMC, compound 3 hrs, then 1 ng/mL IL-4 for 10 min; Table 115; read-out: STAT6", "how_it_was_run": "(§1)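 Thawed human PBMC rested overnight in IMDM/10% FBS, then got compound for 3 hrs before a 10 min cytokine pulse: 1 ng/mL IL-4 for pSTAT6, 10 ng/mL IL-6 for pSTAT3. Lysates went to MSD sandwich capture on total STAT6 or STAT3 with phospho-specific detection. IC50 came from background-subtracted, DMSO-normalized signal.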", "units": {"IC50": "nM"}}
{"smiles": "CC(C)OC(=O)OCOP(=O)(OCCSC(=O)C(C)(C)C)C(F)(F)c1ccc2sc(C(=O)N[C@H]3CCCC[C@H]4CC[C@@H](C(=O)N5C[C@@H](C#N)[C@H](c6ccccc6)C5)N4C3=O)cc2c1", "note": "(single isomer, unassigned) [Compound 1012]", "IC50": "< 100"}
{"target": "T1, pY641-STAT6 in PBMC", "test": "MSD-pSTAT-PBMC Assay (pSTAT6, IL-4 stimulated)", "assay_type": "cell-based", "conditions": "STAT6, PBMC, compound 3 hrs, then 1 ng/mL IL-4 for 10 min; Table 115", "how_it_was_run": "as §1", "units": {"IC50": "nM"}}
{"smiles": "COCCOC(=O)[C@H](C)NP(=O)(Oc1ccccc1)[C@@H](F)c1ccc2sc(C(=O)N[C@H]3CCCC[C@H]4CC[C@@H](C(=O)N5C[C@H](c6ccccc6)[C@@H](C#N)C56CC6)N4C3=O)cc2c1", "note": "(stereo partly drawn) [Compound 375, 2-methoxyethyl (((R)-(2-(((3S,6S,10aS)-3-((6S,7R)-7-cyano-6-phenyl-4-azaspiro[2.4]heptane-4-carbonyl)-5-oxodecahydropyrrolo [1,2-a]azocin-6-yl)carbamoyl)benzo [b]thiophen-5-yl)fluoromethyl) (phenoxy)phosphoryl)-L-alaninate]", "IC50": "< 100"}
{"smiles": "COC(C)(C)COC(=O)[C@H](C)NP(=O)(Oc1ccccc1)[C@@H](F)c1ccc2sc(C(=O)N[C@H]3CCCC[C@H]4CC[C@@H](C(=O)N5C[C@@H](c6cccnc6)CC56CC6)N4C3=O)cc2c1", "note": "(stereo partly drawn) [Compound 358, 2-methoxy-2-methylpropyl (((R)-fluoro(2-(((3S,6S,10aS)-5-oxo-3-((R)-6-(pyridin-3-yl)-4-azaspiro[2.4]heptane-4-carbonyl)decahydropyrrolo[1,2-a]azocin-6-yl)carbamoyl)benzo [b]thiophen-5-yl)methyl)(phenoxy)phosphoryl)-L-alaninate]", "IC50": "< 100"}
{"smiles": "CCCOC(=O)[C@H](C)NP(=O)(Oc1ccccc1)[C@H](F)c1ccc2sc(C(=O)N[C@H]3CC[C@H](N4CCC4)C[C@H]4CC[C@@H](C(=O)N5C[C@H](c6ccccc6)[C@@H](C#N)C56CC6)N4C3=O)cc2c1", "note": "(stereo partly drawn) [Compound 491, propyl (((S)-(2-(((3S,6S,9S,10aR)-9-(azetidin-1-yl)-3-((6S,7R)-7-cyano-6-phenyl-4-azaspiro[2.4]heptane-4-carbonyl)-5-oxodecahydropyrrolo [1,2-a]azocin-6-yl)carbamoyl)benzo [b]thiophen-5-yl)fluoromethyl) (phenoxy)phosphoryl)-L-alaninate]", "IC50": "< 100"}
{"smiles": "CCCOC(=O)[C@H](C)NP(=O)(Oc1ccccc1)[C@@H](F)c1ccc2sc(C(=O)N[C@H]3CCC[C@H]4CC[C@@H](C(=O)N5C[C@H](c6cncc(OC)c6)[C@@H](C#N)C56CC6)N4C3=O)cc2c1", "note": "(single isomer, unassigned) [Compound 369]", "IC50": "1000 to 3000"}
{"smiles": "CCCOC(=O)[C@H](C)NP(=O)(Oc1ccccc1)[C@@H](F)c1ccc2sc(C(=O)N[C@H]3CCCC[C@H]4CC[C@@H](C(=O)N5C(=O)N(c6ccc(C)nc6)C(=O)C56CC6)N4C3=O)cc2c1", "note": "(stereo partly drawn) [Compound 328, propyl (((R)-fluoro(2-(((3S,6S,10aS)-3-(6-(6-methylpyridin-3-yl)-5,7-dioxo-4,6-diazaspiro[2.4]heptane-4-carbonyl)-5-oxodecahydropyrrolo [1,2-a]azocin-6-yl)carbamoyl)benzo [b]thiophen-5-yl)methyl)(phenoxy)phosphoryl)-L-alaninate]", "IC50": "100 to 1000"}
{"smiles": "CCCOC(=O)[C@H](C)NP(=O)(Oc1ccccc1)C(F)c1ccc2sc(C(=O)N[C@H]3CCCC[C@H]4CC[C@@H](C(=O)N5C[C@H](c6cccnc6)CC56CC6)N4C3=O)cc2c1", "note": "(stereo in doubt) [Compound 459, propyl (((S)-fluoro(2-(((3S,6S,10aS)-5-oxo-3-((S)-6-(pyridin-3-yl)-4-azaspiro[2.4]heptane-4-carbonyl)decahydropyrrolo[1,2-a]azocin-6-yl)carbamoyl)benzo [b]thiophen-5-yl)methyl)(phenoxy)phosphoryl)-L-alaninate]", "IC50": "< 100"}
{"smiles": "CCCOC(=O)[C@H](C)NP(=O)(Oc1c(C)cccc1C)[C@H](F)c1ccc2sc(C(=O)N[C@H]3CCC[C@H]4CC[C@@H](C(=O)N5C[C@@H](c6cccnc6)CC56CC6)N4C3=O)cc2c1", "note": "(stereo partly drawn) [Compound 359, propyl ((2,6-dimethylphenoxy) ((S)-fluoro(2-(((3S,6S,9aS)-5-oxo-3-((R)-6-(pyridin-3-yl)-4-azaspiro[2.4]heptane-4-carbonyl)octahydro-1H-pyrrolo[1,2-a]azepin-6-yl)carbamoyl)benzo [b]thiophen-5-yl)methyl)phosphoryl)-L-alaninate]", "IC50": "< 100"}
{"smiles": "CCCOC(=O)[C@H](C)NP(=O)(Oc1ccccc1)C(F)c1ccc2ccc(C(=O)N[C@H]3CCCC[C@H]4CC[C@@H](C(=O)N5CC(c6ccn(C)c(=O)c6)CC56CC6)N4C3=O)cc2c1", "note": "(stereo partly drawn) [Compound 440, propyl ((fluoro(7-(((3S,6S,10aS)-3-(6-(1-methyl-2-oxo-1,2-dihydropyridin-4-yl)-4-azaspiro[2.4]heptane-4-carbonyl)-5-oxodecahydropyrrolo [1,2-a]azocin-6-yl)carbamoyl)naphthalen-2-yl)methyl)(phenoxy)phosphoryl)-L-alaninate]", "IC50": "< 100"}
{"smiles": "CCCOC(=O)[C@H](C)NP(=O)(Oc1ccccc1)[C@@H](F)c1ccc2sc(C(=O)N[C@H]3CCC[C@H]4CC[C@@H](C(=O)N5C[C@H](c6cncc(Cl)c6)[C@@H](C#N)C56CC6)N4C3=O)cc2c1", "note": "(single isomer, unassigned) [Compound 368]", "IC50": "> 3000"}
{"smiles": "CCCOC(=O)[C@H](C)NP(=O)(Oc1ccccc1)C(F)c1ccc2ccc(C(=O)N[C@H]3CCCC[C@H]4CC[C@@H](C(=O)N5CCC(c6ccn(C7CC7)c(=O)c6)C5)N4C3=O)cc2c1", "note": "(stereo partly drawn) [Compound 455, propyl (((7-(((3S,6S,10aS)-3-(3-(1-cyclopropyl-2-oxo-1,2-dihydropyridin-4-yl)pyrrolidine-1-carbonyl)-5-oxodecahydropyrrolo [1,2-a]azocin-6-yl)carbamoyl)naphthalen-2-yl)fluoromethyl) (phenoxy)phosphoryl)-L-alaninate]", "IC50": "> 3000"}
{"smiles": "CCCOC(=O)[C@H](C)NP(=O)(Oc1ccccc1)[C@@H](F)c1ccc2sc(C(=O)N[C@H]3CC[C@H](N4CCC4)C[C@H]4CC[C@@H](C(=O)N5C[C@H](c6ccccc6)[C@@H](C#N)C56CC6)N4C3=O)cc2c1", "note": "(stereo partly drawn) [Compound 490, propyl (((R)-(2-(((3S,6S,9S,10aR)-9-(azetidin-1-yl)-3-((6S,7R)-7-cyano-6-phenyl-4-azaspiro[2.4]heptane-4-carbonyl)-5-oxodecahydropyrrolo [1,2-a]azocin-6-yl)carbamoyl)benzo [b]thiophen-5-yl)fluoromethyl) (phenoxy)phosphoryl)-L-alaninate]", "IC50": "100 to 1000"}
{"smiles": "CCCOC(=O)[C@H](C)NP(=O)(Oc1ccccc1)C(F)c1ccc2sc(C(=O)N[C@H]3CCCC[C@H]4CC[C@@H](C(=O)N5C(=O)N(c6cccnc6)CC56CC6)N4C3=O)cc2c1", "note": "(stereo partly drawn) [Compound 467, propyl ((fluoro(2-(((3S,6S,10aS)-5-oxo-3-(5-oxo-6-(pyridin-3-yl)-4,6-diazaspiro[2.4]heptane-4-carbonyl)decahydropyrrolo[1,2-a]azocin-6-yl)carbamoyl)benzo [b]thiophen-5-yl)methyl)(phenoxy)phosphoryl)-L-alaninate]", "IC50": "> 3000"}
{"smiles": "C[C@H](NP(=O)(Oc1ccccc1)[C@@H](F)c1ccc2sc(C(=O)N[C@H]3CCCC[C@H]4CC[C@@H](C(=O)N5C[C@@H](c6cccnc6)CC56CC6)N4C3=O)cc2c1)C(=O)OCc1ccccc1", "note": "(stereo partly drawn) [Compound 472, benzyl (((R)-fluoro(2-(((3S,6S,10aS)-5-oxo-3-((R)-6-(pyridin-3-yl)-4-azaspiro[2.4]heptane-4-carbonyl)decahydropyrrolo[1,2-a]azocin-6-yl)carbamoyl)benzo [b]thiophen-5-yl)methyl)(phenoxy)phosphoryl)-L-alaninate]", "IC50": "< 100"}
{"smiles": "C[C@H](NP(=O)(Oc1ccccc1)[C@@H](F)c1ccc2sc(C(=O)N[C@H]3CCCC[C@H]4CC[C@@H](C(=O)N5C[C@@H](c6cccnc6)CC56CC6)N4C3=O)cc2c1)C(=O)OCC(C)(C)C", "note": "(stereo partly drawn) [Compound 477, neopentyl (((R)-fluoro(2-(((3S,6S,10aS)-5-oxo-3-((R)-6-(pyridin-3-yl)-4-azaspiro[2.4]heptane-4-carbonyl)decahydropyrrolo[1,2-a]azocin-6-yl)carbamoyl)benzo [b]thiophen-5-yl)methyl)(phenoxy)phosphoryl)-L-alaninate]", "IC50": "< 100"}
{"smiles": "CCCOC(=O)[C@H](C)N[P@@](=O)(Oc1ccccc1)[C@@H](F)c1ccc2sc(C(=O)N[C@H]3CCCC[C@H]4CC[C@@H](C(=O)N5C[C@@H](c6cccnc6)CC56CC6)N4C3=O)cc2c1", "note": "(single isomer, unassigned) [Compound 461]", "IC50": "< 100"}
